# Source: patent US6080542A, “Plant peptide transport gene” (priority 1997, dated 2000)
# Key:
# [1] = system: PB1X-9B (pJP9); test: Growth on peptides, mutant transformed with yeast peptide transport gene; format: cell-based, Saccharomyces cerevisiae
# Protocol: (§1) In addition, untransformed PB1X-9B, PB1X-9B transformed with plasmid pJP9 encoding the above-described yeast peptide transport gene, PB1X-2AΔ and PB1X-2A, the ptr2^+ parental strain to PB1X-2AΔ strain, were also assayed. Each strain was grown overnight in SC media plus uracil (non-transformed) or minus uracil (transformed) plus amino acids to stationary phase and harvested by centrifugation. Cells were then washed twice with sterile dH2 O and resuspended at 5×10^6 cells/ml. 5 μl of each suspension was applied as a small spot to a 2 ml volume of solid media in a 24 well plate. All peptides were suspended in sterile, deionized water and added to an equal volume of SC medium plus the appropriate amino acids and uracil when required. The medium for each assay thus consisted of SC medium plus or minus uracil supplemented with 80 μM of a specific peptide and auxotrophic requirements minus the amino acid components of the added peptide. The plates were incubated at 30° C. for 72 hrs. and then scored for growth.
# [2] = biological target: T1, yeast peptide transport system (Saccharomyces cerevisiae, UniProt P32901); test: Competition for L-leucyl-L-[3H]leucine uptake, PB1X-9B[pJP9]; format: cell-based; details: pH 5.5
# T1 construct: The ptr2 gene encodes a 602 amino acid hydrophobic polypeptide with 12 putative hydrophobic segments; expressed in transfected cells; host or cells: S. cerevisiae peptide transport mutant PB1X-9B (ptr2-2) transformed with pJP9
# T1 sequence (P32901 1-601): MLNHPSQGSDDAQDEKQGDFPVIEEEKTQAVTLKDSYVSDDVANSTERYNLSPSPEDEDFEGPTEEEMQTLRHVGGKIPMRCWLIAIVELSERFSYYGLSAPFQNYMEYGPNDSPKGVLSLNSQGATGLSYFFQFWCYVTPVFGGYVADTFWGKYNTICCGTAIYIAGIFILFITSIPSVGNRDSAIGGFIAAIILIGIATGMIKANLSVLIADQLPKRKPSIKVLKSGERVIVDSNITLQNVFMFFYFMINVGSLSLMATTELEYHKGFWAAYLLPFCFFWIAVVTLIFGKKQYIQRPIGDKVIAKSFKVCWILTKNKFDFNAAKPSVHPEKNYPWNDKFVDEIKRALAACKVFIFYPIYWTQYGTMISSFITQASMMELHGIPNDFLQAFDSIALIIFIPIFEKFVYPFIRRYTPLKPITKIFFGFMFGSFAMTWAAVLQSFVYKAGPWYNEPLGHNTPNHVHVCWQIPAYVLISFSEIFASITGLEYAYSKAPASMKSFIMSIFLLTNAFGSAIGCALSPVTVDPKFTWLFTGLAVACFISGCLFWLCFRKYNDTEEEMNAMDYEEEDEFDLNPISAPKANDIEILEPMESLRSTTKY
# Protocol: L-leucyl-L [^3 H]leucine trifluoroacetic acid (TFA) was synthesized by standard solution phase techniques (Naider, F. et al., J. Biol. Chem. 249:9-20 (1974)). Uptake of L-leucyl-L-[H]leucine was performed as by Island, M. D. et al (J. Bacteriol. 169:2132-2136 (1987)), with the following modifications. Cells were grown to late log phase (26×10^7 cells/ml) overnight in SC with 2% glucose, 1 mg/ml allantoin plus amino acids to supplement auxotrophic markers. To induce peptide transport. 5-15 ml from this culture was added to 100 ml fresh medium such that the density was 3.0×10^6 cells/ml. This culture was allowed to grow (approx. 2 hrs.) to a density of 6.0×10^6 cells/ml and then harvested by centrifugation. The pelleted cells were washed twice with 10 ml cold dH2 O and suspended in cold 2% glucose to a final concentration of 2×10^8 cells/ml and incubated at 30° C. for 15 min. 500 μl of cells were then added to an equal volume of reaction mixture (30° C.) and incubated at 30°-C. At 20, 40, 60, 90, and 120 sec. intervals, 190 μl portions were removed, filtered over filters (pore size, 0.45 μm; GN-6; Gelman Sciences, Inc., Ann Arbor, Mich.) and washed 2 times with 5 ml cold, sterile dH2 O and once with 5 ml dH2 O at room temperatures. Filters were placed in scintillation vials with 5 ml of Budget-Solve scintillation cocktail (Research Products International Corp., Mount Prospect, Ill.) and counted (liquid scintillation counter; LS-7000; Beckman Instruments, Inc., Fullerton, Calif.). The final concentration of the components in the uptake assay was 1% glucose, 40 mM sodium citrate-potassium phosphate buffer (pH 5.5), and 1.5×105 M L-leucyl-L-[^3 H]leucine (specific activity, 10 mCi/mmole). Uptake is expressed as nanomoles per mg dry weight.
# [3] = system: PB1X-9B (pPTF4); test: Growth on peptides, mutant transformed with plant gene ATPTR2A; format: cell-based, Saccharomyces cerevisiae
# Protocol: as §1
# [4] = system: PB1X-2A; test: Growth on peptides, parental strain; format: cell-based, Saccharomyces cerevisiae; details: data not shown
# Protocol: as §1, with “Thus, the peptide transport mutant PB1X-9B and deletion strain PB1X-2AΔ transformed with plasmids pPTF4 (ATPTR2A) or pDTF1 (ATPTR2B) were grown on various peptides to assess the specificity of the plant peptide transporter. In” for “In”
# [5] = system: PB1X-9B; test: Growth on peptides as amino acid source, peptide transport mutant; format: cell-based, Saccharomyces cerevisiae; details: PBIX-9B; 80 μM peptide in SC medium, 30° C., 72 hrs
# Protocol: as §1
# [6] = system: ATPTR2Ap; test: Uptake of L-leucyl-L-[3H]leucine and competition, PB1X-9B[pPTF4]; details: PB1X-9B[pPTF4]; pH 5.5; dileucine and leucine at 100-fold
# Chain of ATPTR2Ap (as listed by the source): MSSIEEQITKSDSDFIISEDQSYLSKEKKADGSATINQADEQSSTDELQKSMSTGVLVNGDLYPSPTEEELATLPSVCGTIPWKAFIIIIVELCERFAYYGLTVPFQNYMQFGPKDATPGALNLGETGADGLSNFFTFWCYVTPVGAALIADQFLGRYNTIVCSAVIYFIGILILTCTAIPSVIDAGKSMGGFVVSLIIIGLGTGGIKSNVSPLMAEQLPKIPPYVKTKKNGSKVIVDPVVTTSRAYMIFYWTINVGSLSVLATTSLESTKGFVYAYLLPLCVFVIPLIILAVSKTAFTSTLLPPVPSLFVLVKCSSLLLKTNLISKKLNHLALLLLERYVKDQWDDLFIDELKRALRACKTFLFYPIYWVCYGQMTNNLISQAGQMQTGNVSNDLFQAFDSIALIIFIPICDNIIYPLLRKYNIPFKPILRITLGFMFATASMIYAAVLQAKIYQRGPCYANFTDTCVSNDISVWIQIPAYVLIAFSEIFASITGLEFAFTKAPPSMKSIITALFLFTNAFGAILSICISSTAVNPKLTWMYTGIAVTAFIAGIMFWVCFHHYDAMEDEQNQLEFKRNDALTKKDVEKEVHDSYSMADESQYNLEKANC
substance,measurement,setting,value
Met-Met-Leu: tripeptide (MML),growth on peptide (in words),[1]; PB1X-9B transformed with pJP9,showed growth on all peptides except
same,growth on peptide,"[1]; PBIX-9B (pJP9), 80 μM peptide in SC medium, 30° C., 72 hrs",-
same,competition for uptake of [3H]-dileucine,[2],uptake competition similar to that seen for Leu-Leu
same,growth on peptide,"[3]; PBIX-9B (pPTF4), 80 μM peptide in SC medium, 30° C., 72 hrs",-
same,growth on / utilization of peptide (in words),[3]; plant peptide transport gene (pPTF4),able to utilize
same,utilization of peptide for growth (in words),[4],did not utilize
same,growth on peptide,[5],-
same,competition for uptake of [3H]-dileucine,[6],uptake competition similar to that seen for Leu-Leu
